Patent publication US8822517B2, “Arylosulfonamides for the treatment of CNS diseases” (Adamed SP. Z O.O., priority 2010, dated 2014)
Read-outs that look alike come from different tables or passages of the source.

What was measured:
[1] = test system: adrenergic α1 receptor; assay: Binding assay α1 (non-selective), [3H]prazosin, rat cerebral cortex; conditions: percent inhibition of control specific binding; compounds tested at 1×10^−6 M
How it was run: (§1)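 Specific ligand binding was taken as total minus non-specific binding, with the latter defined in the presence of surplus unlabelled ligand. Each compound was tested at a single 1×10^−6 M concentration.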

[2] = target: T1, serotoninergic 5-HT7 receptor (Homo sapiens, UniProt P34969); assay: Binding assay 5-HT7 (h), [3H]LSD, CHO cells; design: expressed in transfected cells; host or cells: CHO cells; conditions: read-out: 5-HT7
How it was run: as §1

[3] = target: T2, serotoninergic 5-HT6 receptor (Homo sapiens, UniProt P50406); assay: Binding assay 5-HT6 (h), [3H]LSD, CHO cells; design: expressed in transfected cells; host or cells: CHO cells; conditions: read-out: 5-HT6
How it was run: as §1

[4] = target: T3, serotoninergic 5-HT1A receptor (Homo sapiens, UniProt P08908); assay: Cellular functional assay, serotoninergic 5-HT1A receptor (agonism/antagonism); type: cell-based; conditions: for inhibition at 1 µM: CHO, read-out: 5-HT1A-antag. [%]; for activation at 1 µM: agonist effect, percent of control specific agonist response (100 nM 8-OH-DPAT for control), 1×10^−6 M, 5-HT1A (h), CHO cells, read-out: 5-HT1A-ag [%]
T3 sequence (P08908 1-422): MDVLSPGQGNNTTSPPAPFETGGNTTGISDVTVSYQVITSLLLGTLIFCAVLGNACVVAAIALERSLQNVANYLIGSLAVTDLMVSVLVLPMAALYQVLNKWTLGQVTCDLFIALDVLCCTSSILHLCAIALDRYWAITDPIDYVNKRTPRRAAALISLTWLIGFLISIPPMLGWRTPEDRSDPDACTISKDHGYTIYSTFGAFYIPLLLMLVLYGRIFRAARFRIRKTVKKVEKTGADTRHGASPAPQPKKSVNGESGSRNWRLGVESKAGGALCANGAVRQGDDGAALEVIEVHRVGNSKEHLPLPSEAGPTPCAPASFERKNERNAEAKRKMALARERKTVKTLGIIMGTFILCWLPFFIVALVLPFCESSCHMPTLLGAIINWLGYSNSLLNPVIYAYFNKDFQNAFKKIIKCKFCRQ
Method: (§2) The compounds were tested at the concentration of 1×10^−6M.
(§3) In the Tables ag refers to agonism, and antag to antagonism).

[5] = target: T4, serotonine transporter (SERT) receptor (Homo sapiens, UniProt P31645); assay: Binding assay SERT (h), [3H]imipramine, CHO cells; conditions: read-out: SERT [%]
T4 construct: expressed in transfected cells; host or cells: CHO cells
How it was run: as §1

[6] = target: dopaminergic D3 receptor (Homo sapiens, UniProt P35462); assay: Binding assay D3 (h), [3H]methyl-spiperone, CHO cells; design: expressed in transfected cells; host or cells: CHO cells; conditions: read-out: D3 [%]
How it was run: as §1

[7] = target: T5, dopaminergic D2 receptor (Homo sapiens, UniProt P14416); assay: Binding assay D2S (h), [3H]methyl-spiperone, HEK-293 cells; design: expressed in transfected cells; host or cells: HEK-293 cells; conditions: read-out: D2 [%]
How it was run: as §1
Target sequence in this assay (P14416 1-414 isoform P14416-2): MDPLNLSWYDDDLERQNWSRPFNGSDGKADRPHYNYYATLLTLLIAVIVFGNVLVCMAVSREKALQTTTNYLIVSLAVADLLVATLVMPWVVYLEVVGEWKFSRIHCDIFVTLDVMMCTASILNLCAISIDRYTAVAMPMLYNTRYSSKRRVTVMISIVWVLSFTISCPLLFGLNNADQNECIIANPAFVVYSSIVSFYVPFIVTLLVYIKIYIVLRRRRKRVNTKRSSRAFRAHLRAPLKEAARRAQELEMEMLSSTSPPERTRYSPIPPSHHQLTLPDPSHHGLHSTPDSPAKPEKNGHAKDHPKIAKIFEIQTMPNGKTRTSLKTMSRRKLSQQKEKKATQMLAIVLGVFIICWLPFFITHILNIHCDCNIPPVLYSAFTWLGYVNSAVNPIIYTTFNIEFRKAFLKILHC

[8] = target: T5, dopaminergic D2 receptor; assay: Cellular functional assay, dopaminergic D2 receptor (agonism/antagonism); type: cell-based; conditions: for inhibition at 1 µM: read-out: D2-antag. [%]
Method: as §2, §3
Target sequence in this assay (P14416 whole entry): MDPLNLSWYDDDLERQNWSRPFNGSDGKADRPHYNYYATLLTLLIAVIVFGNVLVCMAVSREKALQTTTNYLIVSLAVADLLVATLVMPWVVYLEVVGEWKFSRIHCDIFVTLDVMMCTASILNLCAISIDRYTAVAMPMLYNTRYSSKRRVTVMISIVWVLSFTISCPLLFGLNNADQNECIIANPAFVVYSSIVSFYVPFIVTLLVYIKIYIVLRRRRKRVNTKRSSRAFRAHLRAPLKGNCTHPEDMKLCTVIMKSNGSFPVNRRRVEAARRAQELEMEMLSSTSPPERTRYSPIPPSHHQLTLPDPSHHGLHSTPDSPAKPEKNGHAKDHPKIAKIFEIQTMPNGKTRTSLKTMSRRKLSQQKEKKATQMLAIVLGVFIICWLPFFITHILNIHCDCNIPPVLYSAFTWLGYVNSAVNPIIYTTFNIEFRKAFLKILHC

[9] = target: T1, serotoninergic 5-HT7 receptor; assay: Cellular functional assay, serotoninergic 5-HT7 receptor (agonism/antagonism); type: cell-based; conditions: for activation at 1 µM: agonist effect, percent of control specific agonist response, compounds tested at 1×10^−6M, read-out: 5-HT7-ag [%]; for inhibition at 1 µM: read-out: 5-HT7-antag. [%]
Method: as §2, §3

[10] = target: T6, adrenergic α2C receptor (Homo sapiens, UniProt P18825); assay: Binding assay α2C (h), [3H]RX 821002, CHO cells; design: expressed in transfected cells; host or cells: CHO cells; conditions: read-out: α2C [%]
T6 sequence (P18825 1-462): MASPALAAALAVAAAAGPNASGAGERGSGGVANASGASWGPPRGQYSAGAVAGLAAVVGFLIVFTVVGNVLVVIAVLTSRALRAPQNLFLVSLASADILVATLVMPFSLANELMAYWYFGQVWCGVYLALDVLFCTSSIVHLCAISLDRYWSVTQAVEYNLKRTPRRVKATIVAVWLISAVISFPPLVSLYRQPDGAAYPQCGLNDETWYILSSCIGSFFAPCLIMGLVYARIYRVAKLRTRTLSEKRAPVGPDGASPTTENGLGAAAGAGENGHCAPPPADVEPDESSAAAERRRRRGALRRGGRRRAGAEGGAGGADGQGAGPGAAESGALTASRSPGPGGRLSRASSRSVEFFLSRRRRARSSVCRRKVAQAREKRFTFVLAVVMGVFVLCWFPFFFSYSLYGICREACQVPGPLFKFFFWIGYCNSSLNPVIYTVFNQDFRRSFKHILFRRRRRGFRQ
How it was run: as §1

[11] = target: T7, serotoninergic receptor 5-HT2C (Homo sapiens, UniProt P28335); assay: Binding assay 5-HT2C (h), [3H]mesulergine, HEK-293 cells; conditions: read-out: 5-HT2C [%]
T7 construct: expressed in transfected cells; host or cells: HEK-293 cells
T7 sequence (P28335 33-458): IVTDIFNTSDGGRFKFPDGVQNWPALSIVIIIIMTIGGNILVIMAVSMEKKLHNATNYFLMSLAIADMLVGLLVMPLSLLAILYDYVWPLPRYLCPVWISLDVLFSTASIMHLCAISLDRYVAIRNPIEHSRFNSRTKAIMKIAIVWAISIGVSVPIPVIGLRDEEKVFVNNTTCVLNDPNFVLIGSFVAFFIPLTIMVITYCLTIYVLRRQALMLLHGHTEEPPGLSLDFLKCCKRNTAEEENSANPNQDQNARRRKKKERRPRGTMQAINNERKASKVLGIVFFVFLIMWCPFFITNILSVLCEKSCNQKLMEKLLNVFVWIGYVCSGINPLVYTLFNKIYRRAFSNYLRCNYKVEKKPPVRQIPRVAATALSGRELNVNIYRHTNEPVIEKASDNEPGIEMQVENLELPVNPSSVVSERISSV
How it was run: as §1

[12] = target: T8, serotoninergic 5-HT2A receptor (Homo sapiens, UniProt P28223); assay: Binding assay 5-HT2A (h), [3H]ketanserin, HEK-293 cells; design: expressed in transfected cells; host or cells: HEK-293 cells; conditions: read-out: 5-HT2A
How it was run: as §1

[13] = test system: sigma σ receptor; assay: Binding assay σ (non-selective), [3H]DTG, rat cerebral cortex; conditions: percent inhibition of control specific binding; compounds tested at 1×10^−6 M
How it was run: as §1

[14] = target: histaminergic H1 receptor (Homo sapiens, UniProt P35367); assay: Binding assay H1 (h), [3H]pyrilamine, HEK-293 cells; design: expressed in transfected cells; host or cells: HEK-293 cells; conditions: read-out: H1 [%]
How it was run: as §1

[15] = target: T9, muscarinic M3 receptor (Homo sapiens, UniProt P20309); assay: Binding assay M3 (h), [3H]4-DAMP, CHO cells; conditions: read-out: M3 [%]
T9 construct: expressed in transfected cells; host or cells: CHO cells
How it was run: as §1

[16] = target: T3, serotoninergic 5-HT1A receptor; assay: Binding assay 5-HT1A (h), [3H]8-OH-DPAT, HEK-293 cells; design: expressed in transfected cells; host or cells: HEK-293 cells; conditions: read-out: 5-HT1A
How it was run: as §1

[17] = target: T2, serotoninergic 5-HT6 receptor; assay: Cellular functional assay, serotoninergic 5-HT6 receptor (agonism/antagonism); type: cell-based; conditions: for activation at 1 µM: agonist effect, percent of control specific agonist response, compounds tested at 1×10^−6M, read-out: 5-HT6-ag [%]; for inhibition at 1 µM: read-out: 5-HT6-antag. [%]
Method: as §2, §3

[18] = target: T8, serotoninergic 5-HT2A receptor; assay: Cellular functional assay, serotoninergic 5-HT2A receptor (agonism/antagonism); type: cell-based
Method: […]. The compounds were tested at the concentration of 1×10^−6M.
Conditions and methodology (by reference to the literature) of cellular functional assays are given in Table 13 and the tests results for representative compounds are given in Table 14 (dopaminergic receptor D2), in Table 15 (dopaminergic receptor D3), in Table 16 (serotoninergic receptor 5-HT1A), in Table 17 (serotoninergic receptor 5-HT2A), in Table 18 (serotoninergic receptor 5-HT6), in Table 19 (serotoninergic receptor 5-HT7), in Table 20 (adrenergic α1 receptor), in Table 21 (adrenergic α2C receptor), in Table 22 (histaminergic H1 receptor) and in Table 23 (serotoninergic 5-HT2C receptor). In the Tables ag refers to agonism, and antag to antagonism).

[19] = HEK293, agonist effect, percent of control specific agonist response (3 μM dopamine for control), 1×10^−6 M, D2S (h), HEK-293 cells, read-out: D2-ag [%]

T4 sequence (P31645 whole entry): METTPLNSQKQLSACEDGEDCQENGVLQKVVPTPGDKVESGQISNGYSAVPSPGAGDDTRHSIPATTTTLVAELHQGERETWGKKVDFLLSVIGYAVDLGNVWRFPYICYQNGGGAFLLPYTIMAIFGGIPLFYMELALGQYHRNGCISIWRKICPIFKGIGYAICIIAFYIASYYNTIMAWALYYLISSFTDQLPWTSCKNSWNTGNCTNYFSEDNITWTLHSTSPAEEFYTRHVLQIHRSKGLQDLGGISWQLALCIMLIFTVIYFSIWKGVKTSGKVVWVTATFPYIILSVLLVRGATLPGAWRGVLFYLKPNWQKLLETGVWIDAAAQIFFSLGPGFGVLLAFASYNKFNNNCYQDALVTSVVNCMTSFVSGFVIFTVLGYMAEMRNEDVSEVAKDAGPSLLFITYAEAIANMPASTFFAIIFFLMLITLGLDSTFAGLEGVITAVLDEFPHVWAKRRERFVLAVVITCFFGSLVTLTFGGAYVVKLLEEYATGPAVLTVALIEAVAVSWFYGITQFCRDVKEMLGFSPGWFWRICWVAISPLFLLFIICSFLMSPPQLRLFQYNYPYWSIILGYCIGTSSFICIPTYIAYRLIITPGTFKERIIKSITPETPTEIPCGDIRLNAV
T8 sequence (P28223 whole entry): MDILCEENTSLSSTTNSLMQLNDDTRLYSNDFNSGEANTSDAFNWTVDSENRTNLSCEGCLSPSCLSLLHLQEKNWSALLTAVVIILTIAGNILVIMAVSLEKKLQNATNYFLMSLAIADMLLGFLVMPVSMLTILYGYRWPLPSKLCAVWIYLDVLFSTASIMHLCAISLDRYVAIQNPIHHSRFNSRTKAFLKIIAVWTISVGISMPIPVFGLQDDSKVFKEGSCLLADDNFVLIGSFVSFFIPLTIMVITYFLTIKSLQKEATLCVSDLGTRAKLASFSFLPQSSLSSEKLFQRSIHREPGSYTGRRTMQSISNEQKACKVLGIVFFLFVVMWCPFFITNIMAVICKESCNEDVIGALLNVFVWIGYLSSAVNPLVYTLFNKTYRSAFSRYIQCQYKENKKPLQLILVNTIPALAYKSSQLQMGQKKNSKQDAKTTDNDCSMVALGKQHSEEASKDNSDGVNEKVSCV
T2 sequence (P50406 whole entry): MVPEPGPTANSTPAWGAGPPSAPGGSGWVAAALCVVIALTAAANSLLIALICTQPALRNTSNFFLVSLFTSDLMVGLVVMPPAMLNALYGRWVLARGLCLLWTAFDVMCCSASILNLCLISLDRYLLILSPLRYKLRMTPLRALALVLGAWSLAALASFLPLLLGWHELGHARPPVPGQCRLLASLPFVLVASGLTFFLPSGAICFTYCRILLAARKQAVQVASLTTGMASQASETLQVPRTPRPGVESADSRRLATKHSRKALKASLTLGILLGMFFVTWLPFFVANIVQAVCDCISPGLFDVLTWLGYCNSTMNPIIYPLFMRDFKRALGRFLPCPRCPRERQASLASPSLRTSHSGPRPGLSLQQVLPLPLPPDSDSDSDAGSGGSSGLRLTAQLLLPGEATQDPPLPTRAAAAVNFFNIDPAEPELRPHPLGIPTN
T1 sequence (P34969 whole entry): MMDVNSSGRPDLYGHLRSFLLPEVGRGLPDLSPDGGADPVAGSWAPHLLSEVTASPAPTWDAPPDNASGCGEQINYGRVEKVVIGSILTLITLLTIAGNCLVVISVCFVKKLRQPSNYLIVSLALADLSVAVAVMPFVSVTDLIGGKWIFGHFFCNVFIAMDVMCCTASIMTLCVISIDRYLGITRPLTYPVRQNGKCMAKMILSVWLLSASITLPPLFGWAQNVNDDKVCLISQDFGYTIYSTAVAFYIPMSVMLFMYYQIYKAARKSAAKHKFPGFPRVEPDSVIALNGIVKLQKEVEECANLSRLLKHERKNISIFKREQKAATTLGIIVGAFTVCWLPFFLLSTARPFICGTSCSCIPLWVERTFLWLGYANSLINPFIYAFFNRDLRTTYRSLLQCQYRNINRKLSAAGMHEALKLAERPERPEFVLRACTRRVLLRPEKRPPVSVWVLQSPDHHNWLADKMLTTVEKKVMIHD
Sequence of histaminergic H1 receptor (P35367 whole entry): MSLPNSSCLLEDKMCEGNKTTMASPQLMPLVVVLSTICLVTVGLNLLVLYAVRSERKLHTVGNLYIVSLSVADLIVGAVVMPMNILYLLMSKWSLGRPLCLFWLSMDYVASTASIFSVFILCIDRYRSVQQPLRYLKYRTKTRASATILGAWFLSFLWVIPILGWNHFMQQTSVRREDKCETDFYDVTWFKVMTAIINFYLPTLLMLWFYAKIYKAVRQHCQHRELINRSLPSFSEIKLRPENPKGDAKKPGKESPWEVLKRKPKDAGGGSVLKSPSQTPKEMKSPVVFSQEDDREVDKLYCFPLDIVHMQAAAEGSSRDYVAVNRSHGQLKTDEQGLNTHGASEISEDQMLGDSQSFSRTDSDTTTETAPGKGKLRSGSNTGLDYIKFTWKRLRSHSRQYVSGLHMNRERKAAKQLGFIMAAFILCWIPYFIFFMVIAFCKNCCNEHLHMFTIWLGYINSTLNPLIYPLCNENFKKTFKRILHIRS
T9 sequence (P20309 whole entry): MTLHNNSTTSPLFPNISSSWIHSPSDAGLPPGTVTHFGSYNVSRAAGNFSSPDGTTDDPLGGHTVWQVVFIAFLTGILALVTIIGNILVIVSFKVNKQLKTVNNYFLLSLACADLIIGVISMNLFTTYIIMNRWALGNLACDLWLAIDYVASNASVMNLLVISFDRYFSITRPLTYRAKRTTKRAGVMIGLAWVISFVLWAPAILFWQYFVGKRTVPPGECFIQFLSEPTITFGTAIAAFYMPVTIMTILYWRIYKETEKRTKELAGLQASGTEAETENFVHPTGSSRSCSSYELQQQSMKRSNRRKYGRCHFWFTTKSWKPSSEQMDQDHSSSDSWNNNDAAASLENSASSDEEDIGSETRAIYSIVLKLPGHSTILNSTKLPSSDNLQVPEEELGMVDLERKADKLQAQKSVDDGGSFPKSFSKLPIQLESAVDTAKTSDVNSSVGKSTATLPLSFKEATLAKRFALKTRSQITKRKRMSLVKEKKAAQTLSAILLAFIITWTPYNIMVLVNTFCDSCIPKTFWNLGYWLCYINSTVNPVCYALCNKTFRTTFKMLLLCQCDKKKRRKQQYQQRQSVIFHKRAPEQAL
Sequence of dopaminergic D3 receptor (P35462 whole entry): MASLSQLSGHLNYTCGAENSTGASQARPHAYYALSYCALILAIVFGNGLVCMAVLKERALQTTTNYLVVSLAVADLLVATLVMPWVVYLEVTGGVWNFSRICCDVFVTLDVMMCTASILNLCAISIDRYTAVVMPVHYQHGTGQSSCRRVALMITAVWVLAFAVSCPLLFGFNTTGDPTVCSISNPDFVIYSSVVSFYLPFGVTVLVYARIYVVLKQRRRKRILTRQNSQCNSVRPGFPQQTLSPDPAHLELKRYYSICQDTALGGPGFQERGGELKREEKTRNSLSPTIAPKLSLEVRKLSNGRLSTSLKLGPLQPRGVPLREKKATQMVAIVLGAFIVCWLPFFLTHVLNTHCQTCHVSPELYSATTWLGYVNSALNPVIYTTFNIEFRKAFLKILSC

Cc1[nH]c2ccc(Cl)cc2c1C1=CCN(CCNS(=O)(=O)c2cccc(Cl)c2)CC1 [Compound 452, 3-Chloro-N-[2-[4-(5-chloro-2-methyl-1H-indol-3-yl)-3,6-dihydro-2H-pyridin-1-yl]ethyl]-benzenesulphonamide]
α1 [%] [1]: 14% | inhibition at 1 µM [2]: 41% | inhibition at 1 µM [3]: 108% | inhibition at 1 µM [4]: 7% | activation at 1 µM [4]: 30% | inhibition at 1 µM [5]: 18% | inhibition at 1 µM [6]: 14% | inhibition at 1 µM [7]: 42% | activation at 1 µM ([8]; HEK293, read-out: D2-ag [%]): 24% | inhibition at 1 µM ([8]; HEK293): 53%

O=S(=O)(NCCCCN1CCN(c2cccc3[nH]ccc23)CC1)c1ccc(F)c(F)c1 [Compound 29, 3,4-Difluoro-N-{4-[4-(1H-indol-4-yl)piperazin-1-yl]butyl}benzenesulphonamide]
activation at 1 µM [9]: 5% | inhibition at 1 µM [9]: 9% | inhibition at 1 µM [10]: 98% | α1 [%] [1]: 99% | inhibition at 1 µM [2]: 91% | inhibition at 1 µM [3]: 37% | inhibition at 1 µM [11]: 11% | inhibition at 1 µM [4]: 26% | activation at 1 µM [4]: 71% | inhibition at 1 µM [12]: 64% | σ [%] [13]: 93% | inhibition at 1 µM [14]: 74% | inhibition at 1 µM [5]: 12% | inhibition at 1 µM [15]: 25% | inhibition at 1 µM [6]: 98% | inhibition at 1 µM [7]: 94% | inhibition at 1 µM [16]: 99% | activation at 1 µM [8, 19]: 45% | inhibition at 1 µM ([8]; HEK293): 99%

Cc1cccc(S(=O)(=O)NCCCCN2CCN(c3noc4ccccc34)CC2)c1 [Compound 15, N-(4-(4-(1,2-Benzoxazol-3-yl)piperazin-1-yl)butyl)-3-methylbenzenesulphonamide]
activation at 1 µM [9]: 0% | inhibition at 1 µM [9]: 96% | inhibition at 1 µM [10]: 98% | activation at 1 µM [17]: 2% | inhibition at 1 µM [17]: 21% | activation at 1 µM ([18]; read-out: 5-HT2A -ag [%]): -1% | inhibition at 1 µM ([18]; read-out: 5-HT2A -antag [%]): 100% | α1 [%] [1]: 102% | inhibition at 1 µM [2]: 100% | inhibition at 1 µM [3]: 71% | inhibition at 1 µM [11]: 23% | inhibition at 1 µM [12]: 99% | σ [%] [13]: 47% | inhibition at 1 µM [14]: 84% | inhibition at 1 µM [5]: -3% | inhibition at 1 µM [15]: -9% | inhibition at 1 µM [6]: 88% | inhibition at 1 µM [7]: 90% | inhibition at 1 µM [16]: 86% | activation at 1 µM [8, 19]: 2% | inhibition at 1 µM ([8]; HEK293): 88%

O=S(=O)(NCCCCN1CCN(c2cccc3[nH]ccc23)CC1)c1csc2ccccc12 [Compound 32, N-{4-[4-(1H-Indol-4-yl)piperazin-1-yl]butyl}-1-benzothiophene-3-sulphonamide]
inhibition at 1 µM [3]: 23% | inhibition at 1 µM [7]: 101% | activation at 1 µM [8, 19]: 35% | inhibition at 1 µM ([8]; HEK293): 89%

O=c1[nH]c2ccc(S(=O)(=O)NCCCCN3CCN(c4nsc5ccccc45)CC3)cc2o1 [Compound 4, N-(4-(4-(1,2-Benzothiazol-3-yl)piperazin-1-yl)butyl)-2-oxo-3H-1,3-benzoxazole-6-sulphonamide]
activation at 1 µM [9]: -1% | inhibition at 1 µM [9]: 81% | inhibition at 1 µM [10]: 96% | activation at 1 µM [17]: -1% | inhibition at 1 µM [17]: 37% | α1 [%] [1]: 96% | inhibition at 1 µM [2]: 97% | inhibition at 1 µM [3]: 87% | inhibition at 1 µM [11]: 91% | inhibition at 1 µM [12]: 99% | σ [%] [13]: 1% | inhibition at 1 µM [14]: 100% | inhibition at 1 µM [5]: 26% | inhibition at 1 µM [15]: 3% | inhibition at 1 µM [6]: 98% | inhibition at 1 µM [7]: 96% | inhibition at 1 µM [16]: 99%

O=S(=O)(NCCN1CCC(c2noc3cc(F)ccc23)CC1)c1cccc2ccccc12 [Compound 23, N-[2-[4-(6-Fluoro-1,2-benzoxazol-3-yl)piperidin-1-yl]ethyl]naphthalene-1-sulphonamide]
activation at 1 µM [9]: 0% | inhibition at 1 µM [9]: 88% | inhibition at 1 µM [10]: 99% | activation at 1 µM [17]: 0% | inhibition at 1 µM [17]: 1% | α1 [%] [1]: 97% | inhibition at 1 µM [2]: 96% | inhibition at 1 µM [3]: 69% | inhibition at 1 µM [11]: 44% | inhibition at 1 µM [12]: 100% | σ [%] [13]: 82% | inhibition at 1 µM [14]: 67% | inhibition at 1 µM [5]: 68% | inhibition at 1 µM [15]: -2% | inhibition at 1 µM [6]: 93% | inhibition at 1 µM [7]: 97% | inhibition at 1 µM [16]: 85%
